US10265321B2, “Uses of salt-inducible kinase (SIK) inhibitors” (Dana-Farber Cancer Institute, Inc., priority 2014, dated 2019)
Read-outs that look alike come from different tables or passages of the source.

Legend:
[1] = system: IL-10 production by zymosan-stimulated BMDCs; test: IL-10 up-regulation in zymosan-stimulated BMDCs (AlphaLISA/ELISA); assay type: cell-based, mouse
Procedure: (§1) Bone marrow-derived DCs were differentiated from C57BL/6 bone marrow in the presence of GM-CSF-conditioned media. CD11c^+ CX3CR1^hi myeloid cells and CD11c^+ CX3CR1^− DCs were isolated from the small intestine lamina propria of Cx3cr1^eGFP/+ mice (12). Detection of cell-surface Thy1.1 expression on BMDCs from 10BiT reporter mice was conducted as described previously (24). Cell viability was estimated by change in total cellular ATP levels using CellTiterGlo assays (Promega). Preparation of recombinant SIK proteins and IC50 measurements were conducted as described previously (21). Total RNA was extracted using a NucleoSpin 96 RNA isolation kit (Macherey-Nagel) followed by cDNA synthesis and multiplex RT-PCR using a microfluidic dynamic array (Fluidigm). The concentrations of TNF-α, IL-6, IL-10, IL-12p40, IL-1β and RANTES in culture supernatants were detected using a FlexSet Cytometric bead array (BD Biosciences). Alternatively, IL-10 secretion was quantified using ELISA (BD Biosciences) or AlphaLISA (PerkinElmer) assays. NO production was estimated based on nitrate content in culture medium using the Greiss reagent.
C57BL/6 mice were euthanized and bone marrow harvested from femurs and tibias as described previously (Graham D B, et al. (2007) An ITAM-signaling pathway controls cross-presentation of particulate but not soluble antigens in dendritic cells. The Journal of experimental medicine 204(12):2889-2897). BMDCs were differentiated DMEM supplemented with 2 mM GlutaMAX, 10% (vol/vol) FBS, penicillin, streptomycin and 2% mouse GM-CSF conditioned media derived from TOPO cells. Cultures were differentiated for 7 days and routinely analyzed for >90% CD11c (APC anti-CD11c clone HL3; BD Biosciences) positivity by flow cytometry before use in experiments. Lentiviral transduction of bone marrow cultures was conducted by addition of 293T culture supernatants containing lentiviral particles encoding the CREB dependent luciferase reporter construct or CRTC3 targeting or control shRNAs one day post-isolation. Stable integration of lentiviral shRNA constructs was selected by addition of puromycin (3 μg/mL) on day 4 post-transduction. After 2 days, stably transduced BMDCs were released from selection and used in subsequent assays. Unless otherwise indicated, cells were treated for 2 days with PGE2 (5 μM) or HG-9-91-01 (0.5 μM) or an equivalent concentration of DMSO (≤0.5%) and then stimulated for 18 hr with LPS (100 ng/mL), R848 (10 μg/mL) or zymosan (4 μg/mL).
BMDCs were seeded into black 384-well plates (Corning) at 20,000 cells/well in 40 μL complete DMEM using a Multidrop COMBI (Thermal Scientific) followed by incubation at 37° C. for 2 hr to allow for plate adherence. SIK inhibitors (100 nL/well) were pin-transferred from concentrated DMSO stocks using CyBi-Well Vario (CyBio) into duplicate plates. For each treatment plate, 32 out of 384 wells were pinned with DMSO as negative control and 32 out of 384 wells were pinned with PGE2 (5 μM final concentration). Two days after SIK inhibitor treatment, BMDCs were stimulated with zymosan (4 μg/mL final concentration) dispersed in culture medium (20 μL/well) using a Multidrop COMBI. After 18 hr, 5 μL of resulting supernatant was transferred from the culture plate to white 384-well AlphaLISA plates (Perkin Elmer) using a CyBi-Well Vario. IL-10 abundance in the supernatants was determined using an AlphaLISA assay (PerkinElmer) according to the manufacture's protocol and signal intensity measured using an EnVision multimode plate reader. SIK inhibitor activity was expressed as a % of the differences between the mean abundance of IL-10 in PGE2 versus DMSO wells on a per plate basis. Cell viability assays were conducted on the same tissue culture plates as the IL-10 assay. First media was removed and replaced by solution of 50% (vol/vol) CellTiter-Glo (Promega) in PBS. […]

[2] = molecular target: T1, SIK3 (Homo sapiens, UniProt Q9Y2K2); test: Protein kinase assay ([γ-32P] ATP, phosphocellulose paper) against SIK3; assay type: biochemical; settings: for remaining activity at 0.1 µM / remaining activity at 1 µM: DMSO set to 100%; for remaining activity at 0.1 µM: read-out: Activity of protein kinase treated with 0.1 μM of I-1 (% control (DMSO)) SIK3; for remaining activity at 1 µM: read-out: Activity of protein kinase treated with 1 μM of I-1 (% control (DMSO)) SIK3; for IC50: read-out: Enzyme Inhibition IC50 SIK3
T1 construct: made in house
Procedure: as §1
In another set of experiments, the activities of the SIK inhibitors described herein against SIK were determined according to the methods reported in Hastie et al., Nature Protocols, 2006, 1, 968-971.
This buffer consisted of 50 mM Tris-HCl, pH 7.5, 0.1 mM EGTA, 1 mg ml^−1 bovine serum albumin and 0.1% (vol/vol) 2-mercaptoethanol.
An assay buffer of 500 mM Tris-HCl, pH 7.5, 1 mM EGTA, and 100 mM magnesium acetate was used for the protein kinase assay.
The specific activity of the [γ-^32P] ATP solution was 1×10^5 to 1×10^6 c.p.m. per nmol depending on what was needed to produce an optimal signal/noise ratio. Stocks of nonradioactive (“cold”) ATP were dissolved in 10 mM HEPES, and the pH of the resulting stock solutions was adjusted to 7.4. To measure the concentration of ATP, a sample of such a stock solution was diluted to 20 μM, and the absorbance of the diluted sample was measured at 259 nm. The absorbance of a 20-μM stock solution of ATP at 259 nm was about 0.31. The 1-mM solution of cold ATP was “spiked” with [γ-^32P] ATP to produce a radioactivity of 1×10^5 to 1×10^6 c.p.m. per nmol.
1) The number of assay samples needed was determined based on, e.g., the following considerations: (i) each condition was assayed in duplicate; (ii) two controls containing peptide or protein substrate and ATP but no SIK were included to assess contamination by any free ATP not incorporated into substrate, alongside two controls lacking a peptide or protein substrate but containing ATP and SIK to correct for any incorporation of phosphate into the kinase itself (e.g., autophosphorylation); and (iii) a maximum of 40 samples were assayed manually at one time by a single person. Microcentrifuge tubes were label distinctly and were placed on ice.
4) Dilute the SIK in enzyme dilution buffer and place on ice.
5) Pipette 5 j±l of 10× concentrated assay buffer, 5 j±l peptide or protein substrate (the two “no-substrate” control tubes had 5 j±l water added instead of peptide or protein substrate), and 30 μl distilled water into each tube. Keep the tubes on ice.
6) Add 5 μl diluted SIK to each tube, except for the two “no-enzyme” control tubes, which had 5 μl enzyme dilution buffer added, and still keeping the tubes on ice. In some cases, premixed “cocktails” of assay components were prepared containing peptide or protein substrate, assay buffer, and distilled water to limit the number of additions to each assay tube. Each of steps 7 to 14 was done behind a plexiglass shield.
7) Insert each tube into the water bath at intervals of 15 s to allow the assay mixture to reach 30° C. Begin the SIK reactions by adding 5 μl of 1 mM [γ-^32P] ATP to each tube at intervals of 15 s. Close each tube, vortex for 1 s to mix the contents and immediately replace in a rack in the water bath. Incubate for 10 min at 30° C. […]

[3] = Mus musculus, BMDC, zymosan-stimulated BMDCs, read-out: IL-10 induction EC50

T1 sequence (Q9Y2K2 whole entry): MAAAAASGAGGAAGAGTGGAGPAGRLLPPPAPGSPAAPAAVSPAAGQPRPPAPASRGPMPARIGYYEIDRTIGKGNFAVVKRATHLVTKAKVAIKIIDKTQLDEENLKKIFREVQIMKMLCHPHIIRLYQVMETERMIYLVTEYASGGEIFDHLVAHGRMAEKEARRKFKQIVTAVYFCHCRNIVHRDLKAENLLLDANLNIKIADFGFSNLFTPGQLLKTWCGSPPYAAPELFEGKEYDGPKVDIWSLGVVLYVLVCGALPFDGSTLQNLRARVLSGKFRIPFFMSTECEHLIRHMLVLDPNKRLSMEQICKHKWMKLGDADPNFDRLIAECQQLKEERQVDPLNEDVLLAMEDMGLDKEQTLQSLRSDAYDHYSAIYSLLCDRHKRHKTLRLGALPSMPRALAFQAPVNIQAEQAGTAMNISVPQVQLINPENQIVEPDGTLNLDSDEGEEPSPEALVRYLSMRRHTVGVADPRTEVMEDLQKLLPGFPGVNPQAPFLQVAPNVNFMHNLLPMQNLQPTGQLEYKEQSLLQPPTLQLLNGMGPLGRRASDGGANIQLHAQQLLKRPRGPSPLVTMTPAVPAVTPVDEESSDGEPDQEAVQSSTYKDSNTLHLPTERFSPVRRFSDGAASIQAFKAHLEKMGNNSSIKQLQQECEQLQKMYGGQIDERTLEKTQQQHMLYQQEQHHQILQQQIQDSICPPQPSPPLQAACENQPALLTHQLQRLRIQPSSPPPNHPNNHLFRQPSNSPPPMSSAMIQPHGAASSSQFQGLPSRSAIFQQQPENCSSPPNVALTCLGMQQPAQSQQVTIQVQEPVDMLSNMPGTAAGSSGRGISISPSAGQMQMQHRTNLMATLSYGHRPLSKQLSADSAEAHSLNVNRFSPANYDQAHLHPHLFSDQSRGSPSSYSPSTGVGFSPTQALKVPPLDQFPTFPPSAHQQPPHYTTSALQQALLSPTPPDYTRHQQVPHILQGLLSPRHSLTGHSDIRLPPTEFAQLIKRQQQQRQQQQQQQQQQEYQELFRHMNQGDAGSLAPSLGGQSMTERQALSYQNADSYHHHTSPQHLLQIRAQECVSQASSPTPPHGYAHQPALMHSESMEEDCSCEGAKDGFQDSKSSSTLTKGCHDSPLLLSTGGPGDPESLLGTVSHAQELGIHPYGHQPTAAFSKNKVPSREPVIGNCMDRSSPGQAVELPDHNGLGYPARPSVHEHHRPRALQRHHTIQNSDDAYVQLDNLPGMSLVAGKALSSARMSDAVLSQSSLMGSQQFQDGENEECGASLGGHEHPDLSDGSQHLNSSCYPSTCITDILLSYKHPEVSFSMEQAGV

EC50 [1, 3] | remaining activity at 0.1 µM [2] | remaining activity at 1 µM [2] | IC50 [2] | Structure (SMILES) | concentrations that suppressed/reduced zymosan-induced IL-10 production ([1]; BMDCs) | EC50 ([1]; BMDCs pre-treated 2 days, zymosan 18 hr, ELISA, read-out: EC50 of potentiation of zymosan-induced IL-10 production)
– | – | – | – | COc1ccc(N(C(=O)Nc2c(C)cccc2C)c2cc(Nc3ccc(N4CCN(C)CC4)cc3)ncn2)c(OC)c1 [HG-9-91-01] | greater than 1 μM | ~200 nM
5620 nM | 33% | 13% | 89.1 nM | Cc1cccc(C)c1NC(=O)N1C/C=C\COc2cccc(c2)Nc2cc1ncn2 [I-1] | – | –
1460 nM | 45% | 16% | 120 nM | CCN1CCN(c2ccc(Nc3cc(-n4ccnc4Nc4c(C)cccc4C)ncn3)cc2)CC1 [II-1, 6-(2-((2,6-dimethylphenyl)amino)-1H-imidazol-1-yl)-N-(4-(4-ethylpiperazin-1-yl)phenyl)pyrimidin-4-amine] | – | –
